In one test the test system is Eil-promoter. As to the kind of experiment: Induction of Eil-promoter (EilR-regulated, reporter gene) by hydrophobic cations. The format is cell-based, E. coli. Conditions: preliminary results for the leuco-form. An excerpt:
A series of EilR-regulated promoters have been identified by creating a library that contains an eil-operator and randomized core promoter sequences coupled to a reporter gene. […] Subsequent optimizations have led to several Eil-promoters with improved properties.
The Eil- or Qac-promoters are useful as tools for monitoring real time oxidative stress. […] An Eil-promoter or Qac-promoter coupled with a reporter gene can serve as a signal-amplifying sensor for real time in vivo oxidative stress, which could be useful to monitor and understand physiological stress reactions. Similarly, heme catalyzes the oxidation of the colorless leucocrystal violet to its purple cation by reducing hydrogen peroxide. This colorful radical reaction is utilized in forensics to uncover removed blood stains. Crystal violet induces Eil-biosensors at concentrations that are much lower than the eye can detect. Such a sensor could be a sensitive tool for blood detection in forensic analyses.
Numbers in brackets indicate the concentration applied for induction (in μM).

In another test the test system is p1-promoter. As to the kind of experiment: RFP expression from the p1-promoter in various bacteria. The class given is cell-based, Three different gram-negative bacteria. Conditions: same plasmid in all strains (BBR origin of replication). From the text: All strains contain the same plasmid (BBR origin of replication).
The functionality of Eil-promoters is not restricted to E. coli and offers an expression platform in various host organisms. […] In addition to bacterial promoters, the eil operators can be used to control expression from phage promoters such as T7. […] RFP was expressed from a T7 promoter controlled either by an IPTG-inducible lac operator or an acridine orange-inducible eil operator. The chromosomal T7-RNA polymerase was expressed from a Lac-promoter in both cases (in E. coli BL21-DE3). In the future, T7 RNA-polymerase expression could also be controlled by an Eil-promoter. […] All strains contain the same plasmid (BBR origin of replication).

In another test the test system is SmvR. In words: RFP expression from an Eil-promoter regulated by EilR homologue SmvR. The class given is cell-based, Salmonella typhimurium. Conditions: in E. coli; eilO consensus operator. An excerpt: (§1) The EilR homologues SmvR (from Salmonella typhimurium) and KmrR (from Klebsiella BRL6-2) regulate RFP expression from an Eil-promoter in E. coli. Like EilR, these repressors bind to the eilO consensus operator and are induced e.g. by crystal violet.

A further test relates to KmrR. As to the kind of experiment: RFP expression from an Eil-promoter regulated by EilR homologue KmrR. The class given is cell-based, Klebsiella BRL6-2. Conditions: in E. coli; eilO consensus operator.
Description: as §1

On to `CN(C)c1ccc(C(c2ccc(N(C)C)cc2)c2ccc(N(C)C)cc2)cc1` [leucocrystal violet], for which the “induction of Eil-promoters” value with Eil-promoter is given as “does not cause induction”.

Consider `CN(C)c1ccc2cc3ccc(N(C)C)cc3nc2c1` [acridine orange], for which, in the test with p1-promoter, the “RFP expression from the p1-promoter on induction” value is given as “express RFP from the p1-promoter”. For `CN(C)c1ccc(C(=C2C=CC(=[N+](C)C)C=C2)c2ccc(N(C)C)cc2)cc1` [crystal violet], the “induction of Eil-promoters” value with Eil-promoter is listed as “induces Eil-promoters at nanomolar concentrations”. In addition, the “induction of SmvR-regulated RFP expression from an Eil-promoter” value in the test on SmvR is given as “induced”. Moreover, the “induction of KmrR-regulated RFP expression from an Eil-promoter” value in the test on KmrR was “induced”.
